Legend:
H3N2 influenza A virus = assay: In vivo pharmacodynamics, influenza A virus infection model (lung index, lung viral load); conditions: H3N2-infected BALB/c mice, x ± s, n = 10; for Lung index: 6 mg/kg oral gavage once daily; for PCR viral load: lung tissue, 6 mg/kg
Description: (§1) In this example, the H3N2 influenza A virus and the IBV influenza B virus were used to intranasally infect BALB/c mice to establish an influenza A virus infection model and an influenza B virus infection model. After infection, the compound of Formula I was administered to the mice by oral gavage. Changes in lung index and lung viral load of the mice were observed. Oseltamivir phosphate granules, baloxavir marboxil, T-3 compound and T-4 compound were set as positive controls to evaluate the in vivo efficacy of the compound of Formula I against influenza viruses.
A total of 250 qualified SPF-grade BALB/c mice, weighing 11.9-15.1 g, half male and half female, were randomly divided into 7 groups based on genders and body weights: normal control group, model control group, oseltamivir phosphate granules group (6 mg/kg), baloxavir marboxil group (6 mg/kg), T-3 compound group (6 mg/kg), T-4 compound group (6 mg/kg) and Compound of Formula I group (6 mg/kg). The normal control group, oseltamivir phosphate granules group, baloxavir marboxil group, T-3 compound group (6 mg/kg) and T-4 compound group each included 30 mice, and the model control group and the Compound of Formula I group each included 50 mice. Two hours before the first administration, all mice were lightly anesthetized with ether. Except for the normal control group, all mice were intranasally inoculated with the stock solution of H3N2 influenza A virus (viral titer: 6 log2) at 100 µL per mouse. The normal control group was administrated with an equal volume of phosphate-buffered solution intranasally. Each group of mice was administered the corresponding concentration of the drug solution at 20 mL/kg, once daily for 5 consecutive days. The normal control group and the model control group were administered an equal volume of 0.5% methylcellulose (0.5% MC) by oral gavage. The body weights of the mice in each group were recorded daily. At 24 h and 48 h after administration, 10 mice (half male and half female) were randomly selected from each group and euthanized by cervical dislocation, and their lungs were dissected and weighed to calculate the lung index. The influenza A viral load in the lung tissue of the mice was detected using a real-time quantitative polymerase chain reaction (PCR) method. In the model control group and the Compound of Formula I group, 10 mice were euthanized at 12 h, 24 h, 48 h, 72 h, and 5 days after administration. The left lung was collected to assess the H3N2 influenza A viral load. […]

[1] = Pharmacokinetics after oral gavage of MC suspension, plasma LC-MS/MS; parameters: species or system SD rats; conditions: SD, rat, in vivo, 0.9 mg/kg
Description: This example investigated the pharmacokinetics profile of the compound of Formula I administered as a methylcellulose (MC) suspension by oral gavage in rats.
The drug concentration of baloxavir was determined using a validated LC-MS/MS analytical method. Plasma samples were precipitated with acetonitrile, and the supernatant was injected for analysis. A chromatographic column, Waters XBridge C8 2.5 µm 2.1×50 mm Column, was used, and a gradient elution was carried out using a mobile phase of 0.1% formic acid in water and acetonitrile (containing 0.1% formic acid), with a flow rate of 0.60 mL/min. Monitoring was carried out using an electrospray ionization (ESI) source in a positive ion mode with a multiple reaction monitoring (MRM) method. The linear range for baloxavir was 0.1000 to 100.0 ng/mL, with a lower limit of quantification of 0.1000 ng/mL; the linear range for baloxavir marboxil was 0.1000 to 5.000 ng/mL, with a lower limit of quantification of 0.1000 ng/mL; the linear range for the compound of Formula I was 0.1000 to 5.000 ng/mL, with a lower limit of quantification of 0.1000 ng/mL; the linear range for the T-3 compound was 0.1000 to 5.000 ng/mL, with a lower limit of quantification of 0.1000 ng/mL; and the linear range for the T-4 compound was 0.1000 to 5.000 ng/mL, with a lower limit of quantification of 0.1000 ng/mL.
This experiment used the marketed drug baloxavir marboxil and the analogous compounds T-3 and T-4 as references to investigate the differences in single-dose pharmacokinetics characteristics between the compound of Formula I and the above compounds. The dose groups were designed as follows: baloxavir marboxil group, with a medium dose (0.9 mg/kg, calculated as baloxavir), T-3 and T-4 compound groups, with a medium dose (0.9 mg/kg), and Compound of Formula I group, with a medium dose (0.9 mg/kg). Blood samples (approximately 0.2 mL) were collected via the orbital plexus before administration (0 h) and at 5 min, 15 min, 30 min, 1 h, 2 h, 4 h, 6 h, 8 h, 12 h, and 24 h after administration. Plasma was separated by centrifugation at 1700 g for 10 min, and plasma drug concentrations were determined by the LC-MS/MS method. Measured concentration values below 80% of the lower limit of quantification of the analyzed subject were considered not detected (counted as zero) or below the limit of quantification (counted as ND); values before the peak concentration Cmax were counted as zero, and values after the peak concentration were counted as ND. Pharmacokinetics parameters were calculated using Phoenix WinNonlin 8.0 software.
The main pharmacokinetics parameter experiment results are as follows: The primary pharmacokinetics parameters after the administration of different doses of a suspension of the compound of Formula I to SD rats by oral gavage are shown in Table 5 below.

[2] = In vitro cytotoxicity, Cell Counting Kit (CCK-8); format: cell-based, canine; conditions: dog; MDCK cells, 48 h incubation, CCK-8, OD450nm; read-out: IC50 (cytotoxic effects on MDCK cells)
Description: The in vitro cytotoxic effects of the test compound (the compound of Formula I) and the positive control drugs (baloxavir marboxil, baloxavir, T-3 compound and T-4 compound) on Madin-Darby canine kidney (MDCK) cells were determined using a Cell Counting Kit (CCK-8). MDCK cells were seeded in 96-well plates and cultured overnight. After different concentrations of the drugs were added, the cells were incubated for 48 h. CCK-8 was then added, and the cells were incubated in the dark for […]. The optical density (OD) at 450 nm (OD450nm) values were measured using a microplate reader, and the half-maximal inhibitory concentration (IC50) of the drugs on the cells was calculated.

IBV influenza B virus = assay: In vivo pharmacodynamics, influenza B virus infection model (lung index, lung viral load); parameters: PCR relative quantification: unit not given here; conditions: IBV-infected BALB/c mice, x ± s, n = 10; for Lung index: 6 mg/kg oral gavage once daily; for PCR relative quantification: lung tissue, dose printed 18 mg/kg
Description: as §1
A total of 210 qualified SPF-grade BALB/c mice, weighing 13.0-15.4 g, half male and half female, were randomly divided into 7 groups based on genders and body weights: normal control group, model control group, oseltamivir phosphate granules group (6 mg/kg), baloxavir marboxil group (6 mg/kg), T-3 compound group (6 mg/kg), T-4 compound group (6 mg/kg) and Compound of Formula I group (6 mg/kg), 30 mice per group. Two hours before the first administration, all mice were lightly anesthetized with ether. Except for the normal control group, all mice were intranasally inoculated with the stock solution of IBV influenza B virus (viral titer: 8 log2) at 100 µL per mouse. The normal control group was administrated with an equal volume of phosphate-buffered solution intranasally. Each group of mice was administered the corresponding concentration of the drug solution at 20 mL/kg by oral gavage, once daily for 5 consecutive days. The normal control group and the model control group were administered an equal volume of 0.5% MC. The body weights of the mice in each group were recorded daily. At 24 h and 48 h after administration, 10 mice (half male and half female) were randomly selected from each group and euthanized by cervical dislocation, and their lungs were dissected and weighed to calculate the lung index. The influenza B viral load in the lung tissue of the mice was detected using a relative fluorescence quantitative PCR method. […]

[3] = system: influenza B virus strain (B/Florida/78/2015); assay: Cytopathic effect (CPE) assay in MDCK cells, influenza B; format: cell-based; conditions: 100 TCID50, CPE assay, CCK-8, read-out: EC50 against the influenza B virus strain (B/Florida/78/2015)
[4] = system: influenza A virus subtype H3N2 strain (A/California/2/2014); assay: Cytopathic effect (CPE) assay in MDCK cells, influenza A; format: cell-based; conditions: for EC50: Influenza A virus, H3N2, MDCK cells, 100 TCID50, CPE assay, CCK-8, read-out: EC50 against the influenza A virus subtype H3N2 strain (A/California/2/2014)

SMILES: [2H]C([2H])([2H])C([2H])([2H])OC(=O)OCOc1c2n(ccc1=O)N([C@@H]1c3ccccc3SCc3c1ccc(F)c3F)[C@@H]1COCCN1C2=O [Compound of Formula I, [[(12aR)-12-[(11S)-7,8-difluoro-6,11-dihydrodibenzo[b,e]thiepin-11-yl]-6,8-dioxo-3,4,6,8,12,12 a-hexahydro-1H-[1,4]oxazino[3,4-c]pyrido[2,1-f][1,2,4]triazin-7-yl]oxy]methyl (ethyl-d5) carbonate]
- Lung index (H3N2 influenza A virus; 24 h after administration): 8.67 ± 0.51^×× mg/g
- Lung index (H3N2 influenza A virus; 48 h after administration): 9.00 ± 0.57^× mg/g
- PCR viral load (H3N2 influenza A virus; 24 h after administration): 1308927 ± 1042821^×× copies
- PCR viral load (H3N2 influenza A virus; 48 h after administration): 193017 ± 192655^×× copies
- AUC 0-t [1]: 203.1047 ± 21.4237 (10.55%) ng·h/mL
- AUC 0-∞ [1]: 207.7670 ± 25.0910 (12.08%) ng·h/mL
- Cmax [1]: 31.7780 ± 2.4334 (7.66%) ng/mL
- Tmax [1]: 1.0000 (0.500, 2.000) h
- IC50 at 48 h [2]: 17400 nM
- Lung index (IBV influenza B virus; 24 h after administration): 12.01 ± 1.09 mg/g
- Lung index (IBV influenza B virus; 48 h after administration): 9.79 ± 0.90^×× mg/g
- PCR relative quantification (IBV influenza B virus; 24 h after administration): 1416.57 ± 1122.12
- PCR relative quantification (IBV influenza B virus; 48 h after administration): 1206.66 ± 1034.87
- EC50 [3]: 8.15 nM
- EC50 [4]: 5.02 nM
- protection against influenza virus-induced cell damage ([4]; concentration of 250 nM, influenza virus, strain not specified): significant protection

SMILES: O=C1c2c(O)c(=O)ccn2N([C@@H]2c3ccccc3SCc3c2ccc(F)c3F)[C@@H]2COCCN12 [baloxavir]
- IC50 at 48 h [2]: 10400 nM
- EC50 [3]: 2.06 nM
- EC50 [4]: 1.31 nM

SMILES: COC(=O)OCOc1c2n(ccc1=O)N([C@@H]1c3ccccc3SCc3c1ccc(F)c3F)[C@@H]1COCCN1C2=O [baloxavir marboxil]
- Lung index (H3N2 influenza A virus; 24 h after administration): 9.53 ± 0.80 mg/g
- Lung index (H3N2 influenza A virus; 48 h after administration): 9.11 ± 0.96 mg/g
- PCR viral load (H3N2 influenza A virus; 24 h after administration): 1919953 ± 784647^×× copies
- PCR viral load (H3N2 influenza A virus; 48 h after administration): 320599 ± 202529 copies
- AUC 0-t [1]: 157.8227 ± 56.5111 (35.81%) ng·h/mL
- AUC 0-∞ [1]: 160.9111 ± 57.8613 (35.96%) ng·h/mL
- Cmax [1]: 23.1900 ± 7.9729 (34.38%) ng/mL
- Tmax [1]: 1.0000 (0.250, 2.000) h
- IC50 at 48 h [2]: 11600 nM
- Lung index (IBV influenza B virus; 24 h after administration): 11.64 ± 1.06 mg/g
- Lung index (IBV influenza B virus; 48 h after administration): 11.45 ± 0.66^× mg/g
- EC50 [3]: 15.4 nM
- EC50 [4]: 13.4 nM
